The values below come from a melting point compilation (Tetko et al.; mined from patent text by program, amines drawn as free bases though some values may be those of a salt).

Where only a bound is given, the exact number is not on record here.

By melting point is commonly meant the temperature of the solid-liquid transition. With `COc1ccc2c(Cl)ccnc2c1`, the melting point was 86 to 88 °C.

Turning to `c1cc2c(cc1N1CCNCC1)OCCO2`, the melting point came to 138 °C.

In the case of `N#CCCN1CCC(c2noc3cc(F)ccc23)CC1`, the melting point lay in the range of 100 to 101 °C.

As for `N#Cc1c(OCC(F)(F)F)nc(C2CC2)nc1N1CCc2ccccc2CC1`, the melting point fell in the range of 116 to 118 °C.

In turn, `CC(C)[C@H](NC(=O)OCc1ccccc1)C(=O)NCc1ccccc1` came in with a melting point of 174 °C.

For the compound `CCCC(=O)Nc1c2c(nc3ccccc13)CCCC2`, the melting point lay within 202 to 204 °C.

For the compound `CCOC(=O)C(C)NC(=O)c1cc(C)on1` (stereo unspecified), the melting point fell in the range of 65 to 66 °C.

In turn, `Clc1cc(-c2cnco2)nc(Cl)c1Cl` gave a melting point of 128 to 130 °C.

In turn, `BrC1Cn2cccc2Sc2ccccc21` (stereo unspecified) displayed a melting point of 115 to 116 °C.

In turn, `CCCCC(=O)Nc1c(C(=O)OC)cccc1[N+](=O)[O-]` yielded a melting point of 61 to 62 °C.

`CCCCCCCCCC(O)P(=O)(O)O` (stereo unspecified) came in with a melting point of 164 °C.

As for `CCC1C(O)C2C3CCC(C(C)CCC(=O)O)C3(C)CCC2C2(C)CCC(O)CC12` (stereo unspecified), the melting point came out at 110 °C.

For the compound `CCOC(=O)CCCN1CCN(C2=Nc3ccccc3Oc3ccc(Cl)cc32)CC1`, the melting point fell in the range of 86 to 87 °C.

The compound `C=CCNc1nc(NCc2ccccc2)nc2ccc([N+](=O)[O-])cc12` yielded a melting point of 216 to 217 °C.

As for `O=C(NCc1ccccn1)Nc1cc(-n2c(=O)oc3ccccc32)ccn1`, the melting point was 237 to 238 °C.

On to `CC(C)[Si](C#Cc1ccc(-c2nc3cc(C#N)c(C#N)cc3[nH]2)cc1)(C(C)C)C(C)C`, for which the melting point was in the range of 347 to 348 °C.

For `CCOC(=O)c1cc(=O)c(O)c(-c2ccccc2)o1`, the melting point was 155 to 157 °C.

On to `CCOC(=O)C1(NS(=O)(=O)c2ccc3c(Cl)cnc(Cl)c3c2)CCC1`, for which the melting point lay in the range of 123 to 125 °C.

Consider `Cc1ccc2c(c1)C(C(=O)Nc1c(C(C)C)cc(SC#N)cc1C(C)C)c1ccccc1CO2` (stereo unspecified), for which the melting point stood at 146 °C.

The compound `CC(C)NC(Nc1cc(C(F)(F)F)cc(C(F)(F)F)c1)=C(C#N)S(C)(=O)=O` registered a melting point of 188 to 191 °C.

In turn, `Cc1ncc(CO)c(CN(C)C)c1O` came in with a melting point of 146 to 151 °C.

For the compound `N#Cc1ccc(C#CCN2CCc3nc(N)sc3CC2)cc1`, the melting point fell in the range of 174 to 176 °C.

For `COc1ccc2c(c1)[C@H]1Cc3ccccc3[C@H]1N2` (relative stereo), the melting point came to 101 °C.

`CCOC(=O)c1cnc2ccc(C#N)cc2c1NCc1ccc(OC)c(Cl)c1` showed a melting point of 161 to 162 °C.

For `CS(=O)(=O)c1cc(F)cc2c3c(n(Cc4ccc(Cl)cc4)c12)[C@@H](CC(=O)O)CC3`, the melting point worked out at 175 °C.

Compound `CC(C)c1ccc(C(=O)O)c(C2=NC(=O)C(C)(C(C)C)N2)n1` (stereo unspecified) showed a melting point of 131 to 134 °C.

As for `Cn1cc(-c2cnc3ccc(Br)cc3n2)cn1`, the melting point is 172 °C.

In the case of `CC1CC(c2cc3cccc(F)c3s2)CCN1` (stereo unspecified), the melting point was in the range of 45 to 47 °C.

For the compound `O=C1CCC(=O)N1CC(O)COc1ccccc1` (stereo unspecified), the melting point worked out at 130 °C.

Take `COc1ccc(C2(C#N)CCC(=O)CC2)c2c1OCCO2`: the melting point fell in the range of 157 to 161 °C.

In the case of `O=C(O)C1(c2ccccc2)CCC2(CC1)OCCO2`, the melting point is 134 to 139 °C.

For `COC(=O)CC1CC(c2ccc(C#N)cc2F)=NO1` (stereo unspecified), the melting point was 92 to 94 °C.

`O=C(NNC(=O)C(O)c1cccc(O)c1)c1c(O)cc(O)cc1Cl` (stereo unspecified) came in with a melting point of 230 to 231 °C.

On to `CC(C)n1nc(-c2sc(N)nc2-c2ccccc2F)ccc1=O`, for which the melting point lay in the range of 233 to 235 °C.

`CC(=O)Oc1cc(S(=O)(=O)Oc2ccc(C(=O)c3c(Cc4ccccc4)sc(C)c3C)cc2C2CCCC2)ccc1C(=O)O`: the melting point lay within 94 to 96 °C.

In the case of `CC1Cc2cc3c(cc2C(c2ccc([N+](=O)[O-])cc2)=NN1C(=O)Cc1ccccc1)OCO3` (stereo unspecified), the melting point was in the range of 193 to 195 °C.

For the compound `CCCC[C@H](NC(=O)[C@H](CC(C)C)NC(=O)OCc1ccccc1)C(=O)CSC`, the melting point fell in the range of 80 to 82 °C.

Regarding `O=C(CCc1cc(C2CCCCC2)c(O)c(C2CCCCC2)c1)NCCCCCCNC(=O)CCc1cc(C2CCCCC2)c(O)c(C2CCCCC2)c1`, the melting point came to 28 °C.

`Cc1ccc(OCCCN2CCN(c3nc(N)nc(-c4cc(Cl)ccc4Cl)n3)CC2)cc1` registered a melting point of 148 to 150 °C.

`CCCC(=O)C1=C(O)CC(c2cccnc2)CC1=O` (stereo unspecified) showed a melting point of 72 °C.

With `O=[N+]([O-])c1ccc(-c2cccnc2)cc1`, the melting point is 145 to 148 °C.

As for `c1ccc(COc2cccc(CCCn3ccnc3)c2)cc1`, the melting point lay within 82 to 83 °C.

As to `O=C(O)COc1ccc(Cn2nnc(-c3cccc(C#CCc4ccc(F)cc4)c3)n2)cc1`, the melting point lay in the range of 158 to 160 °C.

On to `OC(c1ccc(F)cc1)(c1ccc(F)cc1)C1CCN(Cc2ccccc2)C1` (stereo unspecified), for which the melting point is 99 to 100 °C.

Compound `Cc1ccc(NCC2CCNCC2)c(C(=O)Nc2ccc(F)cn2)c1` yielded a melting point of 147 to 149 °C.

Regarding `CCOc1ccc2c(c1)C(=O)N(c1ccc3sccc3c1)C2`, the melting point is 127 to 129 °C.

For the compound `Cc1ncoc1C(O)c1ccccc1` (stereo unspecified), the melting point lay within 79 to 81 °C.

As to `CN(c1cc(OC(F)(F)F)cc2cc(C(=O)O)[nH]c12)S(=O)(=O)c1cccs1`, the melting point was in the range of 245 to 246 °C.

`Nc1nc(N)nc(-c2ccc(-c3ccc(F)cc3)cc2)n1` yielded a melting point of more than 260 °C.

In the case of `CCCC(C)COc1cc(CCl)c(OC)cc1CCl` (stereo unspecified), the melting point is 78 to 80 °C.

The compound `CNc1cc(-c2c(-c3ccc(F)cc3)ccn2C2CCNCC2)ccn1` gave a melting point of 165 to 167 °C.

Compound `O=C1c2ccccc2C(=O)N1CCCCSc1ccncc1` yielded a melting point of 106 to 108 °C.

With `O=C1C[C@H]2CCCC[C@]23c2cccn2CCN13` (relative stereo), the melting point lay within 122 to 123 °C.

The compound `O=C(O)c1cn(CC2CC2)c2cc(Cl)ccc12` gave a melting point of 219 to 220 °C.

Regarding `Cc1nc2c(c3c1[nH]c1ccccc13)C(=O)CC(C(C)C)C2` (stereo unspecified), the melting point fell in the range of 248 to 249 °C.

`CN[C@@H]1CN(c2c(F)cc3c(=O)c(C(=O)O)cn([C@@H]4C[C@@H]4F)c3c2C)C[C@@H]1C(C)C`: the melting point fell in the range of 168 to 171 °C.

`COC(=O)[C@@H]1C[C@H](C(=O)O)Nc2cc(C)cc(C)c21` (relative stereo) displayed a melting point of 173 °C.

In turn, `COc1ccc(OC(=O)CN2CCN(Cc3cc(OC)c(OC)c(OC)c3)CC2)cc1` yielded a melting point of 94 to 97 °C.

`Oc1ccc2c(c1)CCCC(c1ccccc1)=C2c1ccc(OCCCCCSCc2cccs2)cc1` yielded a melting point of 178 °C.

Regarding `C=CCOc1ccc(C(=O)c2ccc(OCC=C)cc2O)c(O)c1`, the melting point turned out to be 95 °C.

The compound `O=C(CN1CCCCC1)Nc1ccc([N+](=O)[O-])cc1` yielded a melting point of 144 to 145 °C.

`CN1CCN(c2cc3c(Cl)cccc3c(=O)[nH]2)CC1CO` (stereo unspecified) yielded a melting point of 212 to 214 °C.

Compound `CC12CCC3c4ccc(O)cc4C(=O)C(Sc4ccc(Br)cc4)C3C1CCC2O` (stereo unspecified) showed a melting point of 190 to 194 °C.

For `Cc1sc2c(c1C(=O)c1ccccc1)CCC2C(=O)O` (stereo unspecified), the melting point fell in the range of 145 to 147 °C.

In the case of `Cc1nc(C)c(C(=O)OCC2CCCO2)c(-c2cccc([N+](=O)[O-])c2)c1C(=O)OCC1CCCO1` (stereo unspecified), the melting point was in the range of 75 to 77 °C.

`CC(CCC(=O)O)(c1ccc(OCc2ccc3ccccc3n2)c(Cl)c1)c1ccc(OCc2ccc3ccccc3n2)c(Cl)c1` showed a melting point of 91 to 94 °C.

Take `CC(=O)CC(=O)N[C@@H](CC(=O)O)C(=O)O`: the melting point was in the range of 127 to 130 °C.

The compound `CCC(=O)N1C(=O)OC(C)(C)[C@@H]1Cc1ccccc1` gave a melting point of 61 °C.

With `CCOC(=O)Nc1cc(F)c(C#N)cc1F`, the melting point came to 107 °C.

On to `O=C1C(=O)c2ccc(Br)cc2C2=C1SCC1(CCN(CC(O)Cc3ccccc3)CC1)O2` (stereo unspecified), for which the melting point fell in the range of 82 to 83 °C.

On to `Cc1onc(-c2ccccc2)c1-c1csc(N)n1`, for which the melting point was in the range of 223 to 224 °C.

Turning to `CCN(CC)CCSC1=C(C#N)C(c2ccccn2)(c2ccccn2)C(=O)N1`, the melting point fell in the range of 135 to 136 °C.

`O=C1c2ccc(Cl)cc2CC1S(=O)(=O)c1ccccc1` (stereo unspecified): the melting point was determined as 133 °C.

Compound `CCOC(=O)Cn1c(-c2ccc(Cl)c(Cl)c2)nc2cccnc21` displayed a melting point of 141 to 142 °C.

Regarding `COC(=O)c1cc([N+](=O)[O-])c[nH]1`, the melting point was 196 to 197 °C.

Turning to `Cc1cc(-c2ccc(F)cc2)ccc1C(=O)Nc1ccc2cc(CN3CCCC3)cnc2c1C`, the melting point lay within 200 to 203 °C.

As for `c1cc2cc[nH]c2cn1`, the melting point is 132 to 134 °C.

The compound `N#CC(c1ccc(F)cc1)c1ccc(F)cc1` came in with a melting point of 62 to 63.5 °C.

The compound `COC(=O)c1ccc(NCc2cccc(F)c2)cn1` came in with a melting point of 89 to 92 °C.

As to `CCCCCCCCCCCC(=O)c1c[nH]c2ccccc12`, the melting point fell in the range of 129 to 130 °C.

The compound `O=C(O)c1ccc(OCCCc2cc(-c3ccc(C(F)(F)F)cc3)no2)cc1` gave a melting point of 221 to 222 °C.

`CC(=O)SCCCn1cc(C2=C(c3cn(C)c4ccccc34)C(=O)NC2=O)c2ccccc21` had a melting point of 210 to 213 °C.

`CNc1nc(Cl)nc2c1ncn2C1SC(CO)C(O)C1O` (stereo unspecified) came in with a melting point of 220 to 222 °C.

Compound `CNC(=O)C(=NOCF)c1ccccc1COc1ccccc1C` showed a melting point of 86 to 88 °C.

As to `Cc1nnc2n1-c1ccc(Br)cc1C(c1ccccc1F)=NC2NC(=O)OCc1ccccc1` (stereo unspecified), the melting point fell in the range of 160 to 170 °C.

Consider `CC(C)n1nc(-c2sc(C(=O)N3CCCCC3)nc2-c2ccccc2)ccc1=O`, for which the melting point was in the range of 111 to 112 °C.

For `CCCCCCCNC(=O)Nc1ccc(O)cc1C(=O)NCC1CCN(C(c2ccccc2)c2ccccc2)CC1`, the melting point was 165 to 167 °C.

Compound `CN1C(=O)N(c2ccccc2O)Cc2cnc(Nc3ccccc3)nc21` displayed a melting point of 192 °C.

For `C=Cc1cc(Br)c(Br)cc1Br`, the melting point is 64 °C.

Compound `CCCN(CCC)C1Cc2c[nH]c3ccc(C(C)=O)c(c23)C1` (stereo unspecified) returned a melting point of 148 to 150 °C.

`COc1ccccc1COc1ccc2c(c1)C=C(C(=O)O)CCS2(=O)=O`: the melting point fell in the range of 168 to 171 °C.
